# According to patent publication US20180221546A1, “IMPLANTABLE ORTHOPEDIC DEVICES HAVING ANTIMICROBIAL COATINGS” (TELEFLEX MEDICAL INCORPORATED, priority 2015, published 2018):
# Legend:
# Type in all cases: cell-based
# [1] = test system: Candida albicans; assay: MIC and MBC by broth dilution in 96-well plate
# Protocol: (§1) From the stock solutions of the drugs Alexidine and Chlorhexidine, dilution series was prepared in the wells of a 96-well plate by performing 1:1 dilutions to cover a concentration range of 0-512 ppm. Ten microliters from each of the drug concentration was mixed with […] of culture broth containing approximately 10^5CFU/mL of bacteria or yeast species. The test plate was incubated for 18-24 hours after which absorbance of each well was read at 670 nm on a BioTek plate reader. […] The wells containing growth should have had higher absorbance reading when compared to the drug control wells. After reading the absorbance for the MIC, 10 μl of each test well was plated onto the surface of D/E agar in 6 or 12 well microtiter plates to determine the MBC. The plates were incubated inverted at 37° C. for 24-48 hours after which numbers of colonies were counted. The MBC value was the lowest concentration of the drug at which no growth was observed.
# [2] = test system: Enterococcus faecalis; assay: MIC and MBC by broth dilution in 96-well plate
# Protocol: as §1
# [3] = test system: Enterobacter cloacae; assay: MIC and MBC by broth dilution in 96-well plate
# Protocol: as §1
# [4] = test system: Staphylococcus aureus; assay: MIC and MBC by broth dilution in 96-well plate
# Protocol: as §1
# [5] = test system: Acinetobacter baumannii; assay: MIC and MBC by broth dilution in 96-well plate
# Protocol: as §1
# [6] = test system: Proteus mirabilis; assay: MIC and MBC by broth dilution in 96-well plate
# Protocol: as §1
# [7] = test system: Pseudomonas aeruginosa; assay: MIC and MBC by broth dilution in 96-well plate
# Protocol: as §1
# [8] = test system: Candida albicans; assay: Time to Kill; conditions: 128 ppm; C. albicans challenge 10^4-10^5 CFU/mL
# Protocol: (§2) Alexidine and Chlorhexidine, both at a concentration of 128 ppm were exposed to a Gram positive bacteria (Staphylococcus aureus), a Gram negative bacteria (Pseudomonas aeruginosa), and a fungus (Candida albicans). The challenge concentration for each organism was 10^4-10^5 CFU/mL, and the exposure time varied from 0.5-60 minutes. […] Complete kill of all three organisms was observed within 0.5 -1 minute of Alexidine exposure.
# [9] = test system: Staphylococcus aureus; assay: Time to Kill; conditions: 128 ppm; S. aureus challenge 10^4-10^5 CFU/mL
# Protocol: as §2
# [10] = test system: Pseudomonas aeruginosa; assay: Time to Kill; conditions: 128 ppm; P. aeruginosa challenge 10^4-10^5 CFU/mL
# Protocol: as §2
MIC [1] [µg/mL],MIC [2] [µg/mL],MIC [3] [µg/mL],MIC [4] [µg/mL],MIC [5] [µg/mL],MIC [6] [µg/mL],MIC [7] [µg/mL],Compound,MBC [1] [µg/mL],MBC [2] [µg/mL],MBC [3] [µg/mL],MBC [4] [µg/mL],MBC [5] [µg/mL],MBC [6] [µg/mL],MBC [7] [µg/mL],Time to complete kill [8] [min],Time to complete kill [9] [min],Time to complete kill [10] [min]
2,2,2,0.5,16,8,8,[H]/N=C(\N/C(=N/[H])NCCCCCCNC(=N)NC(=N)Nc1ccc(Cl)cc1)Nc1ccc(Cl)cc1 [Chlorhexidine],4,64,32,16,32,8,64,60,60,5
1,0.5,2,0.5,0.5,1,8,CCCCC(CC)CNC(=N)NC(=N)NCCCCCCNC(=N)NC(=N)NCC(CC)CCCC (stereo not shown) [Alexidine],1,2,2,1,1,2,128,0.5 to 1,0.5 to 1,0.5 to 1
